Twelve compounds from article PMC9737537, “In Vitro Susceptibility of HIV Isolates with High Growth Capability to Antiretroviral Drugs” (International Journal of Molecular Sciences, 2022) can be followed below.

What all share (format): cell-based
In experiment [1] the test system is HIV isolates with high growth capability. In words: Antiretroviral drug response (HIV-RNA copies in PHA-PBMC culture, 7 days), pooled HIV isolates. Conditions: for suppression of viral yield in vitro: HIV isolates of Figure 5; for susceptibility of isolates / IC90 values relative to Cmin / Cmax: higher growth capability, without any known drug resistance-related mutation. The source says: (§1) The following nucleotide reverse transcriptase inhibitors were used: emtricitabine (Tokyo Chemical Industry, Tokyo, Japan), lamivudine (Tokyo Chemical Industry, Japan), tenofovir (Selleck Biotech, Tokyo Japan), tenofovir alafenamide (Selleck Biotech, Japan), tenofovir disoproxil fumarate (Tokyo Chemical Industry, Japan), and zidovudine (FUJIFILM Wako, Tokyo, Japan). As it was reported that tenofovir and its prodrugs (tenofovir disoproxil fumarate and tenofovir alafenamide) are measurable in plasma, the antiviral activity of these three synthetic drugs were assessed in vitro [25, 36]. In addition, one non-nucleotide reverse transcriptase inhibitor, efavirenz (Tokyo Chemical Industry, Japan); two protease inhibitors, atazanavir (Selleck Biotech, Japan) and lopinavir (Funakoshi Frontiers in Life Science, Tokyo, Japan); and four integrase inhibitors, bictegravir (Selleck Biotech, Japan), dolutegravir (Selleck Biotech, Japan), elvitegravir (EVG, Selleck Biotech, Japan), and raltegravir (Selleck Biotech, Japan) were analyzed. Representative HIV isolates and a laboratory strain of HIVpNL4-3 were screened for antiretroviral drugs. Briefly, PHA-PBMCs (1.5 × 10^6 cells) were pelleted at 1000 g for 5 min, resuspended with an HIV preparation (10^6 copies) in 100 µL volume, and incubated at 37 °C for 1 h. To remove unbound and non-infectious viruses, the cells were washed twice with RPMI1640 medium and then cultured in different concentrations of antiretroviral compounds (1 mL). The culture was carried out for 7 days, as described above, for growth capability assessment. All procedures were performed in triplicate.
To determine the susceptibility of HIV isolates with high growth capability to synthetic antiretroviral compounds, we used the in vitro susceptibility of the virus (IC90) and pharmacokinetics of an antiretroviral agent (compared to reported Cmin and Cmax).
HIV-RNA in the culture medium (140 µL) was extracted using a QIAamp Viral RNA Mini Kit (QIAGEN KK-Japan, Tokyo, Japan) and subjected to quantitative reverse transcription polymerase chain reaction (qRT-PCR). The amount of HIV-RNA was assayed using a Luna Universal One-Step qRT–PCR kit (New England Biolabs Japan, Tokyo, Japan) and forward (GagB-1F, 5′-[…]-3′, HXB2 position: 1359–1388) and reverse (GagB-1R, 5′-[…]-3′, 1500–1474) primers. The PCR signal was assessed by comparison with a standard curve (encompassing 10^2–10^8 copies/reaction of the in vitro-transcribed RNA transcripts).
The IC50 was calculated using a nonlinear regression curve fit of the dose response curves of each transformed drug concentration and normalized viral load (copies/mL) using GraphPad Prism software (version 8.0). The IC90 was determine using the IC50 and Hill slope factor from the curve fit in the online GraphPad calculator (https://www.graphpad.com/quickcalcs/ECanything1/, accessed on 1 October 2022) for effective concentration. The results are expressed as the mean IC90 of three values obtained in triplicate for each isolate.

The test system of the next experiment is HIV isolate S1506-064. The experiment is described as follows: Antiretroviral drug response in PHA-PBMC culture, isolate S1506-064. The note with it: Human immunodeficiency virus 1, 168 h, high growth capability, no known mutation against tenofovir, 7 days. The protocol: as §1, with “The activity of 13 synthetic antiretroviral compounds at concentrations ranging from 0.001 to 20 μM was evaluated against HIV isolates with diverse growth capabilities and without any known drug resistance-related mutation. The” for “The”, “Briefly, PHA-PBMCs (1.5 × 10^6 cells) were pelleted at 1000 g for 5 min, resuspended with an HIV preparation (10^6 copies) in 100 µL volume, and incubated at 37 °C for 1 h. To remove unbound and non-infectious viruses, the cells were washed twice with RPMI1640 medium and then cultured in different concentrations of antiretroviral compounds (1 mL). The culture was carried out for 7 days, as described above, for growth capability assessment. All procedures were performed in triplicate.” left out

The subject of a further experiment is HIV isolate DR1509-397. The experiment is described as follows: Antiretroviral drug response in PHA-PBMC culture, isolate DR1509-397. The protocol:
as §1, with “The activity of 13 synthetic antiretroviral compounds at concentrations ranging from 0.001 to 20 μM was evaluated against HIV isolates with diverse growth capabilities and without any known drug resistance-related mutation. The” for “The”, “Briefly, PHA-PBMCs (1.5 × 10^6 cells) were pelleted at 1000 g for 5 min, resuspended with an HIV preparation (10^6 copies) in 100 µL volume, and incubated at 37 °C for 1 h. To remove unbound and non-infectious viruses, the cells were washed twice with RPMI1640 medium and then cultured in different concentrations of antiretroviral compounds (1 mL). The culture was carried out for 7 days, as described above, for growth capability assessment. All procedures were performed in triplicate.” left out
HIV-RNA in the culture medium (140 µL) was extracted using a QIAamp Viral RNA Mini Kit (QIAGEN KK-Japan, Tokyo, Japan) and subjected to quantitative reverse transcription polymerase chain reaction (qRT-PCR). […] The PCR signal was assessed by comparison with a standard curve (encompassing 10^2–10^8 copies/reaction of the in vitro-transcribed RNA transcripts).
The IC50 was calculated using a nonlinear regression curve fit of the dose response curves of each transformed drug concentration and normalized viral load (copies/mL) using GraphPad Prism software (version 8.0). […] The results are expressed as the mean IC90 of three values obtained in triplicate for each isolate.

The test system of the next experiment is HIV isolate DR1606-521. In words: Antiretroviral drug response in PHA-PBMC culture, isolate DR1606-521. The protocol: as §1, with “The activity of 13 synthetic antiretroviral compounds at concentrations ranging from 0.001 to 20 μM was evaluated against HIV isolates with diverse growth capabilities and without any known drug resistance-related mutation. The” for “The”, “Briefly, PHA-PBMCs (1.5 × 10^6 cells) were pelleted at 1000 g for 5 min, resuspended with an HIV preparation (10^6 copies) in 100 µL volume, and incubated at 37 °C for 1 h. To remove unbound and non-infectious viruses, the cells were washed twice with RPMI1640 medium and then cultured in different concentrations of antiretroviral compounds (1 mL). The culture was carried out for 7 days, as described above, for growth capability assessment. All procedures were performed in triplicate.” left out

The next experiment has as its system HIV isolate DR1606-479. In words: Antiretroviral drug response in PHA-PBMC culture, isolate DR1606-479. Conditions: Human immunodeficiency virus 1, 168 h, isolate with drug resistance-related mutation, 7 days. The protocol: as §1, with “The activity of 13 synthetic antiretroviral compounds at concentrations ranging from 0.001 to 20 μM was evaluated against HIV isolates with diverse growth capabilities and without any known drug resistance-related mutation. The” for “The”, “Briefly, PHA-PBMCs (1.5 × 10^6 cells) were pelleted at 1000 g for 5 min, resuspended with an HIV preparation (10^6 copies) in 100 µL volume, and incubated at 37 °C for 1 h. To remove unbound and non-infectious viruses, the cells were washed twice with RPMI1640 medium and then cultured in different concentrations of antiretroviral compounds (1 mL). The culture was carried out for 7 days, as described above, for growth capability assessment. All procedures were performed in triplicate.” left out

The next experiment has as its system HIV isolate DR1510-726. In words: Antiretroviral drug response in PHA-PBMC culture, isolate DR1510-726. The note with it: Human immunodeficiency virus 1, 168 h, isolate with drug resistance-related mutation, 7 days. The protocol:
as §1, with “The activity of 13 synthetic antiretroviral compounds at concentrations ranging from 0.001 to 20 μM was evaluated against HIV isolates with diverse growth capabilities and without any known drug resistance-related mutation. The” for “The”, “Briefly, PHA-PBMCs (1.5 × 10^6 cells) were pelleted at 1000 g for 5 min, resuspended with an HIV preparation (10^6 copies) in 100 µL volume, and incubated at 37 °C for 1 h. To remove unbound and non-infectious viruses, the cells were washed twice with RPMI1640 medium and then cultured in different concentrations of antiretroviral compounds (1 mL). The culture was carried out for 7 days, as described above, for growth capability assessment. All procedures were performed in triplicate.” left out

A further experiment relates to HIV isolate DR1605-400. The experiment is described as follows: Antiretroviral drug response in PHA-PBMC culture, isolate DR1605-400. The note with it: Human immunodeficiency virus 1, 168 h, high growth capability, no known drug resistance-related mutation, 7 days. As for the experimental part: as §1, with “The activity of 13 synthetic antiretroviral compounds at concentrations ranging from 0.001 to 20 μM was evaluated against HIV isolates with diverse growth capabilities and without any known drug resistance-related mutation. The” for “The”, “Briefly, PHA-PBMCs (1.5 × 10^6 cells) were pelleted at 1000 g for 5 min, resuspended with an HIV preparation (10^6 copies) in 100 µL volume, and incubated at 37 °C for 1 h. To remove unbound and non-infectious viruses, the cells were washed twice with RPMI1640 medium and then cultured in different concentrations of antiretroviral compounds (1 mL). The culture was carried out for 7 days, as described above, for growth capability assessment. All procedures were performed in triplicate.” left out

The mark [2] stands for this setting: Human immunodeficiency virus 1, lowest among the 13 compounds, isolate not specified, read-out: lowest IC90 values.
Where [3] appears, read: Human immunodeficiency virus 1, read-out: 90% inhibitory concentration (IC90).

Read-outs that look alike come from different tables or passages of the source.

As to `COC(=O)N[C@H](C(=O)N[C@@H](Cc1ccccc1)[C@@H](O)CN(Cc1ccc(-c2ccccn2)cc1)NC(=O)[C@@H](NC(=O)OC)C(C)(C)C)C(C)(C)C` [atazanavir], in experiment [1], the “suppression of viral yield in vitro” value was “remarkably suppressed the viral yield” and the susceptibility of isolates result was “retained susceptibility with lower IC90 values”. Also, the IC90 in experiment [1] (setting [2]) stood at 1.3 ± 1.12 nM.
As for `O=C(NCc1c(F)cc(F)cc1F)c1cn2c(c(O)c1=O)C(=O)N1[C@H]3CC[C@H](C3)O[C@@H]1C2` [bictegravir], the susceptibility of isolates result in experiment [1] is recorded as “retained susceptibility with lower IC90 values”.
`Cc1cn([C@H]2C[C@H](N=[N+]=[N-])[C@@H](CO)O2)c(=O)[nH]c1=O` [zidovudine]: in experiment [1] (setting [2]), the IC90 came out at 1.5 ± 1.11 nM. The susceptibility of isolates result in experiment [1] is listed as “retained susceptibility with lower IC90 values”.
On to `O=C1Nc2ccc(Cl)cc2[C@@](C#CC2CC2)(C(F)(F)F)O1` [efavirenz], for which the IC90 in experiment [1] (setting [3]) came to 3650 ± 770 nM. Also, the “IC90 values relative to Cmin / Cmax” value in experiment [1] was “close to or above Cmin”. In addition, the “IC90 relative to Cmin” value in experiment [1] (isolates both with and without any known drug resistance-related mutation (Figure 5)) is “above Cmin”.
Regarding `CC(C)OC(=O)[C@H](C)N[P@](=O)(CO[C@H](C)Cn1cnc2c(N)ncnc21)Oc1ccccc1` [tenofovir alafenamide], the IC90 in experiment [1] (setting [2]) came to 0.3 ± 0.23 nM. For the same compound, in experiment [1], the susceptibility of isolates result is given as “retained susceptibility with lower IC90 values”. The “activity against resistant isolates” value in experiment [1] (isolates with drug resistance-related mutations in tenofovir disoproxil fumarate) is reported as “active”.
Regarding `Nc1ccn([C@@H]2CS[C@H](CO)O2)c(=O)n1` [lamivudine], in experiment [1] (setting [3]), the IC90 came out at 6830 ± 3960 nM. Moreover, the “IC90 values relative to Cmin / Cmax” value in experiment [1] was “close to or above Cmin”.
On to `Cc1cccc(C)c1OCC(=O)N[C@@H](Cc1ccccc1)[C@@H](O)C[C@H](Cc1ccccc1)NC(=O)[C@H](C(C)C)N1CCCNC1=O` [lopinavir], for which, in experiment [1], the susceptibility of isolates result was “retained susceptibility with lower IC90 values”.
Same read-out and setting: next, `Cc1nnc(C(=O)NC(C)(C)c2nc(C(=O)NCc3ccc(F)cc3)c(O)c(=O)n2C)o1` [raltegravir]: “retained susceptibility with lower IC90 values”.
Turning to `Nc1nc(=O)n([C@@H]2CS[C@H](CO)O2)cc1F` [emtricitabine], the IC90 in experiment [1] (setting [3]) is 680 ± 370 nM. Moreover, in experiment [1], the “IC90 values relative to Cmin / Cmax” value is “close to or above Cmin”.
As for `C[C@H](Cn1cnc2c(N)ncnc21)OCP(=O)(O)O` [tenofovir], the IC90 in experiment [1] (setting [3]) came out at 2050 ± 400 nM; with HIV isolate S1506-064 it was 2800 ± 470 nM; in the experiment on HIV isolate DR1509-397 (Human immunodeficiency virus 1, 168 h, high growth capability, no known drug resistance-related mutation, PHA-PBMC, 7 days, read-out: IC90) it was 2000 ± 400 nM; with HIV isolate DR1509-397 (Human immunodeficiency virus 1, screened using two additional blood sources (three different blood sources, Figure 2B), read-out: mean IC90) it was 1900 ± 40 nM; in the experiment on HIV isolate DR1606-521 (Human immunodeficiency virus 1, 168 h, isolate with drug resistance-related mutation, PHA-PBMC, 7 days, read-out: IC90), 8300 ± 120 nM; with HIV isolate DR1606-521 (Human immunodeficiency virus 1, tenofovir-resistant isolate, above Cmax (Figure 4), read-out: concentration required to fully suppress the number of viral copies (printed as IC90)) it was 10000 nM. The IC90 in the experiment with HIV isolate DR1606-479 was found to be 8500 ± 100 nM; in the experiment with HIV isolate DR1510-726, 7700 ± 60 nM; in the experiment on HIV isolate DR1605-400, 1400 ± 870 nM. In addition, the “IC90 values relative to Cmin / Cmax” value in experiment [1] is “above Cmax”. For the same compound, in the experiment on HIV isolate DR1509-397 (tenofovir at 1 μM (close to Cmax)), the “virus production in the presence of drug” value is reported as “hardly showed the decrease in virus production”.
In the case of `COc1cc2c(cc1Cc1cccc(Cl)c1F)c(=O)c(C(=O)O)cn2[C@H](CO)C(C)C` [elvitegravir], the susceptibility of isolates result in experiment [1] was “retained susceptibility with lower IC90 values”.
For `C[C@@H]1CCO[C@H]2Cn3cc(C(=O)NCc4ccc(F)cc4F)c(=O)c(O)c3C(=O)N12` [dolutegravir], in experiment [1], the “suppression of viral yield in vitro” value was “remarkably suppressed the viral yield” and the susceptibility of isolates result is reported as “retained susceptibility with lower IC90 values”. The IC90 in experiment [1] (setting [2]) was 1.1 ± 0.72 nM.
